Source: PMC12348844, “Anti-Trypanosoma cruzi Potential of New Pyrazole-Imidazoline Derivatives” (Molecules, 2025)

Key:
[1] = system: T. cruzi (Dm28c-Luc); test: Reversibility (washout) assay in T. cruzi-infected Vero cells; type: cell-based, Trypanosoma cruzi; conditions: for parasite load of cell monolayer at 21 dpi (luminescence): untreated 5 × 10^5 A.L.U
Protocol: After treatment, the cultures were thoroughly washed, and parasite recrudescence was evaluated over an extended period of 10 days in RPMI medium supplemented with 10% fetal bovine serum (FBS). Culture supernatants were collected at intervals, and the luminescence signal indicative of trypomastigote release was assessed using a Glomax Multi-Detection plate reader (Promega Corporation, Madison, WI, USA) following the addition of luciferin every 2–3 days. At the experiment’s conclusion, the infection profile of the monolayer was also examined. Cells were fixed with PFA for 20 min at 4 °C, then stained with DAPI for microscopy analysis. Luminescence data were expressed in arbitrary luminescent units (A.L.U), and fluorescence images were acquired using the ImageXpress Micro XLS high-content screening (HCS) system (Molecular Devices, Sunnyvale, CA, USA).

[2] = Cytotoxicity assay, Vero cells (CellTiter-Glo); type: cell-based; conditions: African green monkey, mean ± SD
Protocol: Vero cells, obtained from the Rio de Janeiro Cell Bank (BCRT code 0245) and maintained through weekly subculturing with a dissociation solution containing 0.25% trypsin-EDTA, initiated once the monolayer reached an 80–100% confluence. Following harvesting, the cells were washed and resuspended in RPMI 1640 medium enriched with 10% fetal bovine serum (FBS). Cultures were maintained at 37 °C in a 5% CO2-humidified incubator. These cultures were used for drug screening assays and for producing culture-derived trypomastigotes of T. cruzi.
Cytotoxicity assays were performed using Vero cells, which were seeded at a density of 1.5 × 10^4 cells per well in white 96-well plates with clear bottoms. Following a 24 h adhesion period, the cultures were incubated at 37 °C in a 5% CO2 atmosphere. […] After 72 h of incubation, cell viability was assessed by adding CellTiter-Glo reagent (Promega Corporation, Madison, WI, USA), which induces cell lysis and reacts with the released ATP to produce luminescence. The resulting luminescence was measured using a Glomax Multi-Detection plate reader (Promega Corporation, Madison, WI, USA). The half-maximal inhibitory concentration (CC50) for cell viability was then calculated using GraphPad Prism software version 8.2.1.

[3] = system: T. cruzi Dm28c-Luc in cardiac spheroids; test: Efficacy in T. cruzi-infected 3D cardiac microtissues; type: cell-based; conditions: Trypanosoma cruzi, 72 h, read-out: inhibition of parasite load in infected cardiac spheroids
Protocol: (§1) Three-dimensional (3D) heart muscle cell cultures were obtained as previously described. Briefly, heart muscle cells were isolated from 18-day-old Swiss Webster mouse fetuses. The ventricular tissue was fragmented and enzymatically dissociated using a trypsin and collagenase type II solution. The isolated cells were seeded at a density of 2.5 × 10^4 cells/well in 96-well U-bottom microplates previously coated with 1% agarose. The cells were cultured in Dulbecco’s modified Eagle Medium (DMEM) enriched with 10% FBS, 2.5 mM CaCl2, 1 mM L-glutamine, 2% chicken embryo extract, and a cocktail of antibiotics. The cultures were maintained at 37 °C in a 5% CO2 atmosphere. […]
The efficacy of the promising candidate was assessed using cardiac 3D microtissues. […] At the end of the experiment, luminescence was measured using a Glomax Multi-Detection plate reader (Promega Corporation, Madison, WI, USA) after adding luciferin solution, with results reported in arbitrary luminescence units (A.L.U). To enhance reliability and provide qualitative, orthogonal validation of these luminescence readings, we employed confocal fluorescence microscopy using 4′,6′-diamidino-2-phenylindole (DAPI) staining. […] Imaging was performed using a Zeiss LSM710 confocal fluorescence microscope (Carl Zeiss, Baden–Württemberg, Germany). […]

[4] = Cytotoxicity in 3D cardiac spheroids (CellTiter-Glo); type: cell-based; conditions: Swiss Webster, mouse, 3D cardiac spheroids from fetal heart muscle cells, 15.6 to 500 µM
Protocol: as §1, with “atmosphere. After a 7-day culture period, the resulting fully developed spheroids were used to assess drug-induced cardiotoxicity and evaluate their efficacy against T. cruzi.” for “atmosphere.”
The cytotoxicity of the promising candidate was assessed using 3D cardiac spheroids, seeded at 2.5 × 10^4 cells per well. The cultures were treated with a series of concentrations as previously described, and the cell viability was measured using luminescence following the addition of CellTiter-Glo reagent (Promega Corporation, Madison, WI, USA). […] The data shown represents the mean value accompanied by standard deviations, calculated from at least three independent experiments, each performed in duplicate.

[5] = system: T. cruzi Dm28c-Luc trypomastigotes; test: Anti-T. cruzi in vitro assay, trypomastigotes (luminescence); type: cell-based; conditions: Trypanosoma cruzi, 24 h, mean ± SD
Protocol: The genetically modified Trypanosoma cruzi, clone Dm28c (TcI), expressing luciferase (Dm28c-Luc), was kindly provided by Dr. Cristina Henriques from Oswaldo Cruz Institute—Fiocruz. The parasites were maintained using Vero cell cultures in RPMI 1640 medium enriched with 10% FBS. At 4 days post-infection (dpi), the trypomastigotes released into the culture supernatant were harvested, subjected to centrifugation at 800× g for 20 min at 4 °C, and quantified with a Neubauer chamber. The isolated trypomastigotes were subsequently used for phenotypic screening, drug efficacy assessments employing a 3D cardiac model, washout experiments to evaluate reversibility, drug combination studies, and enzymatic assays.
Drug susceptibility assays were performed on T. cruzi Dm28c-Luc, a genetically engineered parasite expressing luciferase. The drug screening used both trypomastigotes and intracellular amastigotes. Trypomastigotes (1 × 10^6 parasites/well) were added to white 96-well plates with clear bottoms. […] The luminescence was measured using a Glomax Multi-Detection plate reader (Promega Corporation, Madison, WI, USA).

For `FC(F)(F)c1ccc(-n2cc(C3=NCCN3)cn2)cc1` [1k, 1-(4-trifluoromethylphenyl)-4-(4,5-dihydro-1H-imidazol-2-yl)-1H-pyrazole], the “parasite load of cell monolayer at 21 dpi (luminescence)” value ([1]; 28.8 µM) was 4 × 10^4 A.L.U, the “parasite load of cell monolayer at 21 dpi (luminescence)” value ([1]; 57.6 µM) was 1.1 × 10^4 A.L.U and the “sterility of cultures in reversibility assay” value ([1]; 10 days treatment, tested conditions) was “failed to achieve sterility”. For the same molecule, the inhibition at 28.8 µM ([1]; Trypanosoma cruzi, Vero, 240 h, 28.8 µM (IC90), 10 days treatment + 10 days washout, read-out: inhibition of parasite load of cell monolayer at 21 dpi) was 92%, the CC50 at 72 h [2] was 244 ± 21.1 µM and the inhibition at 28.8 µM ([3]; 28.8 µM) was 90%. For the same molecule, the inhibition at 57.6 µM ([3]; 57.6 µM) was 94%, the CC50 at 72 h [4] was 173 ± 6.8 µM and the IC50 [5] was 72.2 ± 10.3 µM. The IC90 [5] was > 100 µM.
